Here are results for 30 compounds from patent US20150203517A1, “Prodrugs of Compounds that Enhance Antifungal Activity and Compositions of Said Prodrugs” (priority 2014, published 2015).

Molecules are shown by their SMILES. Values after ≈ are worked out from the molar mass of the structure shown. Where a name gives a salt, the structure may show the parent alone. Read-outs that look alike come from different tables or passages of the source.

This data set in a line: Saline solubility at 1.00 mg/mL and 0.50 mg/mL (with pH by indicator paper). To be noted: for pH at 1.00 mg/mL of MGCD290 in saline: final concentration of hydroxamate 1 1.00 mg/mL, pH indicator paper; for solubility at 1 h: saline or isotonic, thermodynamic from solid, centrifuged, soluble = no precipitate formed. Type of data set: physicochemical. Here is the method: Assays were performed to determine the saline solubility at 1.00 and 0.50 mg/ml and the stability of certain of the prodrug compounds of Examples 1-111. The following procedures were used.
Step 1. Sample preparation. An amount of the compound sample was precisely weighed to correspond to around 5 mg of the hydroxamate of compound 1, taking into account the mass of the leaving group and the salt factor if applicable. The sample was placed in a 16×125 mm glass screw cap tube. Saline was added so that the final concentration of hydroxamate 1 was 1.00 mg/mL. The pH was measured with pH indicator paper. The tube was shaken for 1 hour on a Vortex apparatus then centrifuged at 3000 rpm (1800 rcf) for 5 minutes. If the compound example was soluble (no precipitate formed) the procedure continued to step 2. If a precipitate formed then the sample was diluted with saline so that the final concentration of the hydroxamate of compound 1 was 0.50 mg/mL, and the shaking and centrifuging steps were repeated. If the compound example was soluble (no precipitate formed) the procedure continued to step 2. If a precipitate formed the sample was discarded. Step 2. HPLC analysis. A 500 μL aliquot of a sample solution prepared according to Step 1 was taken up into a 1.5 mL injection vial to which was added 500 μL of saline. The vial was shaken on a Vortex apparatus, injected into the HPLC instrument (UV detection, zero time point) and the retention time and purity of the sample compound were determined. The injection was repeated after 6 hours and 24 hours, and a comparison was made of the retention time, peak areas and level of degradation (if any) using the GDADI50 method.

The mark [1] stands for this setting: 0.50 mg/mL as hydroxamate 1, shaken 1 hour, read-out: Soluble at 0.5 mg/mL of MGCD290 (Y/N).
The mark [2] stands for this setting: 1.00 mg/mL as hydroxamate 1, shaken 1 hour, read-out: Soluble at 1.00 mg/mL of MGCD290 (Y/N).

Turning to `O=C1COCCOCCOCC(=O)N[C@H](C(=O)NCCC(=O)ONC(=O)Cc2ccc(CCCCc3ccccc3)cc2)CCCCN1` [Compound 84], the “pH at 1.00 mg/mL of MGCD290 in saline” value was 4.5-5. Also, the solubility at 1 h under setting [1] is less than 500 µg/mL. For the same compound, under setting [2], the solubility at 1 h was less than 1000 µg/mL.
Turning to `CC(=O)OCC(=O)NCCC[C@H](NC(=O)COC(C)=O)C(=O)NCCC(=O)ONC(=O)Cc1ccc(CCCCc2ccccc2)cc1` [Compound 157], the “pH at 1.00 mg/mL of MGCD290 in saline” value was 4.5-5. Besides, the solubility at 1 h under setting [1] is less than 500 µg/mL. Also, under setting [2], the solubility at 1 h was less than 1000 µg/mL.
For `NCCCC[C@H](N)C(=O)N1CCC[C@H]1C(=O)ONC(=O)Cc1ccc(CCCCc2ccccc2)cc1` [Compound 106, N-((S)-1-((S)-2,6-Diaminohexanoyl)pyrrolidine-2-carbonyloxy)-2-(4-(4-phenylbutyl)phenyl) acetamide dihydrochloride], the “pH at 1.00 mg/mL of MGCD290 in saline” value is recorded as 3.5-4. Besides, the solubility at 1 h under setting [1] was less than 500 µg/mL. Further, under setting [2], the solubility at 1 h is less than 1000 µg/mL.
The corresponding values for `COC(=O)NCC1(C(=O)ONC(=O)Cc2ccc(CCCCc3ccccc3)cc2)CC1` [Compound 53] are 4.5-5, less than 500 µg/mL and less than 1000 µg/mL.
The corresponding values for `COCCOCCOCC(=O)NCCC(=O)ONC(=O)Cc1ccc(CCCCc2ccccc2)cc1` [Compound 60] are 4.5-5, less than 500 µg/mL and less than 1000 µg/mL.
For the compound `Cl.O=C(Cc1ccc(CCCCc2ccccc2)cc1)NOC(=O)C1CCNCC1` [Compound 118, 2-(4-(4-phenylbutyl)phenyl)-N-(piperidine-4-carbonyloxy)acetamide hydrochloride], the “pH at 1.00 mg/mL of MGCD290 in saline” value is given as 4-4.5. For the same compound, under setting [1], the solubility at 1 h was less than 500 µg/mL. Also, the solubility at 1 h under setting [2] is less than 1000 µg/mL.
On to `COCCOCC(=O)NCCCC[C@H](NC(=O)COCCOC)C(=O)NCC1(C(=O)ONC(=O)Cc2ccc(CCCCc3ccccc3)cc2)CC1` [Compound 161], for which the “pH at 1.00 mg/mL of MGCD290 in saline” value was 4.5-5. Besides, under setting [1], the solubility at 1 h is less than 500 µg/mL. The solubility at 1 h under setting [2] was less than 1000 µg/mL.
As for `Cl.O=C(Cc1ccc(CCCCc2ccccc2)cc1)NOC(=O)CCN1CCNCC1=O` [Compound 128, N-(3-(2-oxopiperazin-1-yl)propanoyloxy)-2-(4-(4-phenylbutyl)phenyl) acetamide hydrochloride], the “pH at 1.00 mg/mL of MGCD290 in saline” value is listed as 4.5-5. Further, the solubility at 1 h under setting [2] is greater than 1000 µg/mL.
As for `COCCOCCOCCOCCOCC(=O)N[C@@H](C)CC(=O)ONC(=O)Cc1ccc(CCCCc2ccccc2)cc1` [Compound 88], the “pH at 1.00 mg/mL of MGCD290 in saline” value is given as 4.5-5. Also, the solubility at 1 h under setting [1] was less than 500 µg/mL. Also, the solubility at 1 h under setting [2] is less than 1000 µg/mL.
Consider `COCCOCCOCC(=O)NCCN(CC(=O)NCCCC(=O)ONC(=O)Cc1ccc(CCCCc2ccccc2)cc1)C(=O)COCCOCCOC` [Compound 134, 2-(2-(2-Methoxyethoxyl)ethoxy)-N-(2-oxo-2-(4-oxo-4-(2-(4-(4-phenylbutyl)phenyl)acetamidooxy)butylamino)ethyl)-N-(10-oxo-2,5,8-trioxa-11-azatridecan-13-yl)acetamide], for which the “pH at 1.00 mg/mL of MGCD290 in saline” value is recorded as 5.5-6. Further, the solubility at 1 h under setting [2] was greater than 1000 µg/mL.
With `COCCOCCOCCNC(=O)CN(CC(=O)NCCOCCOCCOC)C(=O)CCC(=O)ONC(=O)Cc1ccc(CCCCc2ccccc2)cc1` [Compound 95, 4-oxo-N,N-bis (12-oxo-2,5,8-trioxa-11-azatridecan-13-yl)-4-(2-(4-(4-phenylbutyl)phenyl)acetamidooxy)butanamide], the “pH at 1.00 mg/mL of MGCD290 in saline” value is recorded as 4.5-5. Also, the solubility at 1 h under setting [1] was 500 to 1000 µg/mL (≈ 634 to 1270 µM). Under setting [2], the solubility at 1 h was less than 1000 µg/mL.
The corresponding values for `COCCOCCOCCNC(=O)NCCC(=O)NCC1(C(=O)ONC(=O)Cc2ccc(CCCCc3ccccc3)cc2)CC1` [Compound 79, N-1-(2-(2-(2-Methoxyethoxyl)ethoxy)ethyl)-N-3-(2-(1-((2-(4-(4-phenylbutyl)phenyl)acetamidooxy)carbonylcyclopropyl)methyl)carbamoylethyl)urea] are 4.5-5, less than 500 µg/mL and less than 1000 µg/mL.
The corresponding values for `COCCOCC(=O)NCC[C@H](NC(=O)COCCOC)C(=O)NCCC(=O)ONC(=O)Cc1ccc(CCCCc2ccccc2)cc1` [Compound 163] are 4.5-5, less than 500 µg/mL and less than 1000 µg/mL.
Consider `COCCC(=O)NCC[C@H](NC(=O)CCOC)C(=O)NCCC(=O)ONC(=O)Cc1ccc(CCCCc2ccccc2)cc1` [Compound 152], for which the “pH at 1.00 mg/mL of MGCD290 in saline” value was 4.5-5. Besides, the solubility at 1 h under setting [1] was less than 500 µg/mL. Moreover, the solubility at 1 h under setting [2] was less than 1000 µg/mL.
Take `COCCOCCOCCOCCOCC(=O)N1CCC(CCC(=O)ONC(=O)Cc2ccc(CCCCc3ccccc3)cc2)CC1` [Compound 113]: the “pH at 1.00 mg/mL of MGCD290 in saline” value is 5.5-6. In addition, the solubility at 1 h under setting [1] is less than 500 µg/mL. Further, under setting [2], the solubility at 1 h was less than 1000 µg/mL.
The corresponding values for `COCCOCCOCCOCCOCCOCC(=O)N1CCC(OCC(=O)ONC(=O)Cc2ccc(CCCCc3ccccc3)cc2)CC1` [Compound 127] are 4.5-5, less than 500 µg/mL and less than 1000 µg/mL.
In the case of `COCCC(=O)NC[C@H](NC(=O)CCOC)C(=O)NCCC(=O)ONC(=O)Cc1ccc(CCCCc2ccccc2)cc1` [Compound 144], the “pH at 1.00 mg/mL of MGCD290 in saline” value was 4.5-5. For the same compound, the solubility at 1 h under setting [1] was less than 500 µg/mL. In addition, under setting [2], the solubility at 1 h was less than 1000 µg/mL.
The corresponding values for `COCCOCCOCC(=O)NCCCC[C@H](NC(=O)COCCOCCOC)C(=O)ONC(=O)Cc1ccc(CCCCc2ccccc2)cc1` [Compound 71] are 4.5-5, less than 500 µg/mL and less than 1000 µg/mL.
For the compound `COCCOCCOCC(=O)N1CCC(C(=O)ONC(=O)Cc2ccc(CCCCc3ccccc3)cc2)CC1` [Compound 119], the “pH at 1.00 mg/mL of MGCD290 in saline” value is on record as 4.5-5. The solubility at 1 h under setting [1] was less than 500 µg/mL. Also, under setting [2], the solubility at 1 h is less than 1000 µg/mL.
The corresponding values for `CC(C)NC(=O)ONC(=O)Cc1ccc(CCCCc2ccccc2)cc1` [Compound 73, N-(Isopropylcarbamoyloxy)-2-(4-(4-phenylbutyl)phenyl)acetamide] are 4.5-5, less than 500 µg/mL and less than 1000 µg/mL.
The corresponding values for `COCCOCC(=O)NC[C@H](NC(=O)COCCOC)C(=O)NCCC(=O)ONC(=O)Cc1ccc(CCCCc2ccccc2)cc1` [Compound 145] are 4.5-5, less than 500 µg/mL and less than 1000 µg/mL.
Turning to `COCCOCCOCC(=O)NC[C@H](NC(=O)COCCOCCOC)C(=O)NCCC(=O)ONC(=O)Cc1ccc(CCCCc2ccccc2)cc1` [Compound 143], the “pH at 1.00 mg/mL of MGCD290 in saline” value is listed as 4.5-5. Under setting [1], the solubility at 1 h is less than 500 µg/mL. Also, the solubility at 1 h under setting [2] was less than 1000 µg/mL.
Take `COCCOCCOCC(=O)NCCCC[C@H](NC(=O)COCCOCCOC)C(=O)NCC1(C(=O)ONC(=O)Cc2ccc(CCCCc3ccccc3)cc2)CC1` [Compound 162]: the “pH at 1.00 mg/mL of MGCD290 in saline” value is 4.5-5. Under setting [2], the solubility at 1 h was greater than 1000 µg/mL.
For `COCCOCCOCCOCCOCCOCC(=O)NCC[C@H](NC(=O)COCCOCCOCCOCCOCCOC)C(=O)NCCC(=O)ONC(=O)Cc1ccc(CCCCc2ccccc2)cc1` [Compound 150], the “pH at 1.00 mg/mL of MGCD290 in saline” value is on record as 4.5-5. For the same compound, the solubility at 1 h under setting [1] is less than 500 µg/mL. Moreover, the solubility at 1 h under setting [2] is less than 1000 µg/mL.
The corresponding values for `COCCC(=O)NCCC[C@H](NC(=O)CCOC)C(=O)NCCC(=O)ONC(=O)Cc1ccc(CCCCc2ccccc2)cc1` [Compound 156] are 4.5-5, less than 500 µg/mL and less than 1000 µg/mL.
With `COCCOCCOCCOCC(=O)NCCCC[C@H](NC(=O)COCCOCCOCCOC)C(=O)NCCCC(=O)ONC(=O)Cc1ccc(CCCCc2ccccc2)cc1` [Compound 101], the “pH at 1.00 mg/mL of MGCD290 in saline” value is recorded as 4.5-5. Besides, under setting [2], the solubility at 1 h was greater than 1000 µg/mL.
For the compound `O=C(Cc1ccc(CCCCc2ccccc2)cc1)NOC(=O)CCC1CCCC1` [Compound 51], the solubility at 1 h is less than 500 µg/mL under setting [1] and less than 1000 µg/mL under setting [2].
Turning to `COCCOCCOCCOCCOCC(=O)NCC1(C(=O)ONC(=O)Cc2ccc(CCCCc3ccccc3)cc2)CC1` [Compound 56], the “pH at 1.00 mg/mL of MGCD290 in saline” value is recorded as 4.5-5. Also, the solubility at 1 h under setting [1] was less than 500 µg/mL. In addition, under setting [2], the solubility at 1 h was less than 1000 µg/mL.
The corresponding values for `COC(=O)NCCCC[C@H](NC(=O)OC)C(=O)NCCC(=O)ONC(=O)Cc1ccc(CCCCc2ccccc2)cc1` [Compound 155] are 4.5-5, less than 500 µg/mL and less than 1000 µg/mL.
As to `CN1CCN(C(=O)ONC(=O)Cc2ccc(CCCCc3ccccc3)cc2)CC1.Cl` [Compound 45], the “pH at 1.00 mg/mL of MGCD290 in saline” value is 4-4.5. Further, under setting [1], the solubility at 1 h is less than 500 µg/mL. Under setting [2], the solubility at 1 h is less than 1000 µg/mL.
